# Entries after “also recorded” stand apart in the source; their conditions may differ.
# Legend:
# p53 [1] = test: Immunoblot of nuclear fractions with anti-acetylated p53 antibodies; format: cell-based, rat; conditions: for Acetylation of p53 at K320 / Acetylation of p53 at K373/382: nuclear fractions of treated myocytes; for total amount of p53: treated myocytes
# Description: To examine whether the status of acetylation in p53 is affected by NAM or TSA in cardiac myocytes, nuclear fractions were subjected to immunoblot analysis with anti-acetylated p53 antibodies.
# Anti-Sir2α antibody, anti-acetyl-p53 (Lys 320 and Lys 373/382) antibodies and anti-acetyl histone H3 and H4 antibodies were purchased from Upstate. Sirtinol and DEVD-CHO were from CALBIOCHEM, and Trichostatin A (TSA) was from SIGMA.
# cardiac myocytes [2] = test: TUNEL staining of cultured cardiac myocytes; format: cell-based, rat; conditions: for TUNEL positive myocytes: compound alone
# Description: Subsequently, it was determined whether cardiac myocyte death by Sir2α inhibition was due to apoptosis. […] To examine whether activation of caspase-3 was involved in myocyte death induced by NAM and TSA, the effect of DEVD-CHO, a cell permeable inhibitor of caspase-3, upon myocyte death was examined.
# Primary Culture of Neonatal Rat Ventricular Myocytes. […] Myocytes were cultured under serum-free conditions for 48 hours before experiments.
# p53 [3] = test: p53-Luc reporter gene assay; format: cell-based, rat; conditions: treated myocytes
# Description: Transfection and Luciferase Assays. One million cells were transfected with 4 μg of plasmid. The transcriptional activity of p53 was evaluated using p53-Luc (2 pg) containing 15 copies of specific p53 DNA-binding sequence ([sequence]). A plasmid carrying the β-galactosidase gene (SV40-β-gal; 1 μg) was cotransfected. One microgram of expression plasmids pcDNA3.1, pcDNA3.1-Sir2α, or pcDNA 3.1-DN-Sir2α was employed.
# [4] = test system: neonatal rat cardiac myocytes; test: Cardiac myocyte morphology and death (shrinkage, detachment, cell size); format: cell-based
# Description: A 110 kD protein was detected predominantly in the nuclear fraction. To examine the function of Sir2α in cardiac myocytes, nicotinamide (NAM) and sirtinol, inhibitors of Sir2 (Bitterman, et al. (2002) J. Biol. Chem. 277:45099-45107; Grozinger, et al. (2001) J. Biol. Chem. 276:38837-38843) were employed. Myocytes were also treated with trichostatin A (TSA), an inhibitor of class I and II HDACs (Johnstone (2002) Nat. Rev. Drug Discov. 1:287-299).
# To examine whether cardiac myocyte apoptosis due to inhibition of Sir2α is mediated by p53, cardiac myocytes were transduced with adenovirus harboring temperature-sensitive dominant-negative p53 and cultured at 39° C. […] The temperature-sensitive dominant-negative p53 construct works as a dominant-negative only at high temperatures (Regula and Kirshenbaum (2001) J. Mol. Cell. Cardiol. 33:1435-1445). Consistent with this, the cell death inhibitory effect of dominant-negative p53 against NAM treatment was not observed at 32° C.
# (§1) Cardiac-specific overexpression of Sir2α was subsequently examined. […] After 7 days, most myocytes were dead in a low-density culture condition. […] It has been shown that pyruvate increases, while lactate decreases, the cellular NAD^+/NADH ratio, thereby positively or negatively regulating the activity of endogenous Sir2α (Fulco, et al. (2003) Mol. Cell 12:51-62).
# (§2) Primary Culture of Neonatal Rat Ventricular Myocytes. Primary cultures of cardiac ventricular myocytes were prepared from 1-day-old Crl: (WI) BR-Wistar rats according to standard methods (Tomita, et al. (2003) Circ. Res. 93:12-22). Myocytes were cultured under serum-free conditions for 48 hours before experiments. Cell size and total protein content were obtained (Tomita, et al. (2003) supra).
# cardiac myocytes [5] = test: Cell Death Detection ELISA (cytoplasmic mono- and oligo-nucleosomes); format: cell-based, rat; conditions: for mono- and oligo-nucleosomes in the cytoplasm (nuclear fragmentation): marker of apoptosis
# Description: Myocytes were transduced with an adenoviral vector encoding LacZ (Ad-LacZ) or Sir2α (Ad-Sir2α) with or without serum for 48 hours followed by Cell Death ELISA (FIG. 1A). Alternatively, myocytes were transduced Ad-LacZ or Ad-Sir2α with or without H2O2 (100 μM) for 48 hours followed by Cell Death ELISA (FIG. 1B). […] Mean OD value of control was designated as 1. Each column represents mean from 3 different culture preparations.
# (§3) Subsequently, it was determined whether cardiac myocyte death by Sir2α inhibition was due to apoptosis. […] Similar results were obtained using TUNEL staining. To examine whether activation of caspase-3 was involved in myocyte death induced by NAM and TSA, the effect of DEVD-CHO, a cell permeable inhibitor of caspase-3, upon myocyte death was examined.
# as §1, §2
# Assays for Apoptosis. Histone-associated DNA fragments were quantitated by the Cell Death Detection ELISA (ROCHE; Yamamoto, et al. (2003) J. Clin. Invest. 111:1463-1474).
# Histones 3 and 4 = test: Histone acetylation in treated cardiac myocytes (immunoblot); format: cell-based, rat
# caspase-3 = test: Caspase-3 cleavage in cardiac myocytes; format: cell-based, rat; conditions: treated cardiac myocytes
# Description: as §3
# To further confirm that inhibition of endogenous Sir2α stimulates cardiac myocyte apoptosis, the effects of a dominant-negative Sir2α were examined. […] The level of cleaved caspase-3 was higher in dominant-negative Sir2α-transduced myocytes than in LacZ-transduced cells.
# Immunoblot Analysis. Nuclear fractions were prepared as described (Tomita, et al. (2003) supra). Whole-cell lysates were obtained using Lysis Buffer A, containing 150 mmol/L NaCl, 50 mmol/L Tris, pH 7.5, 0.1 mmol/L Na3VO4, 1 mmol/L NaF, 0.5 mmol 4-(2-aminoethyl)benzenesulfonyl fluoride hydrochloride, 1% NONIDET P-40, 0.1% sodium dodecyl sulfate, 0.5% deoxycholic acid, 0.5 μg/mL leupeptin, and 0.5 μg/mL aprotinin. For immunoblotting, the antimurine Sir2α antibody (1:10 000) was used.
# mouse hearts = format: in vivo, mice; design: LV contraction (EF, % FS): dose or concentration left out as unconfirmed
# Description: Tg-Sirt2α (n=6) and NTg (n=4) mice from line 40 were treated with ip injection of 10 mg/kg of paraquat (PQ) for 2 weeks. LV ejection fraction (EF, FIG. 8A) and % fractional shortening (% FS, FIG. 8B) of Tg-Sirt2α and NTg mice after PQ treatment is shown. […] Immunoblot analyses of catalase were conducted, using cardiac myocytes transduced with adenovirus vectors harboring constitutively actively FOXO1a (F-CA), dominant negative FOXO1a (F-DN), or Sirt2α. n=3-4. Values are presented as means±SE.
# To this end, mice were treated for 14 days with paraquat, an inducer of oxidative stress. […] The paraquat-induced increases in oxidative stress were abolished in Tg-Sirt1 line 40 (FIG. 8D). […] Paraquat-induced increases in expression of catalase, an antioxidant, were greater in Tg-Sirt1 than in NTg hearts (FIG. 8E).
# myocytes = conditions: treatment with resveratrol; Pillai et al. 2005; cited from earlier work
compound,measurement,setting,value
"NC(=O)c1cccnc1 [NAM, nicotinamide]",Acetylation of p53 at K320,p53 [1],2.8 fold
same,Acetylation of p53 at K373/382,p53 [1],1.8 fold
same,total amount of p53,p53 [1],Neither NAM nor TSA significantly changed
same,TUNEL positive myocytes,cardiac myocytes [2],increases in TUNEL positive myocytes
same,activity of p53-Luc,p53 [3],dose-dependently increased
same,"cell shrinkage and detachment, consistent with apoptosis",[4]; treatment for 48 hours,dose-dependent increases in cell shrinkage and detachment
same,mono- and oligo-nucleosomes in the cytoplasm (nuclear fragmentation),cardiac myocytes [5],significantly increased
same,acetylation of Histones 3 and 4,Histones 3 and 4,increased acetylation of Histones 3 and 4
same,cleavage of caspase-3,caspase-3,induced cleavage of caspase-3
"C[n+]1ccc(-c2cc[n+](C)cc2)cc1 [Paraquat, paraquat]","LV contraction (EF, % FS)",mouse hearts,significantly reduced LV contraction
same,"oxidative stress (8-OHdG staining, MDA content)","mouse hearts; NTg mouse hearts, ip 10 mg/kg, 14 days",significantly increased the extent of oxidative stress
"CC(/C=C/C(=O)NO)=C\[C@@H](C)C(=O)c1ccc(N(C)C)cc1 [TSA, trichostatin A]",Acetylation of p53 at K320,p53 [1],not
same,Acetylation of p53 at K373/382,p53 [1],not
same,total amount of p53,p53 [1],Neither NAM nor TSA significantly changed
same,TUNEL positive myocytes,cardiac myocytes [2],modest increase in TUNEL-positive myocytes
same,activity of p53-Luc,p53 [3],failed to activate
same,myocyte death,[4]; at high doses,caused death in some myocytes at high doses
same,cell size,[4]; treated cardiac myocytes,modestly increased cell size
same,mono- and oligo-nucleosomes in the cytoplasm (nuclear fragmentation),cardiac myocytes [5],significantly increased nuclear fragmentation; also recorded: not as potent as NAM
same,acetylation of Histones 3 and 4,Histones 3 and 4,increased acetylation of Histones 3 and 4
same,cleavage of caspase-3,caspase-3,did not
CC(O)C(=O)O (stereo not drawn) [lactate],cytoplasmic accumulation of mono- and oligo-nucleosomes induced by serum starvation,"cardiac myocytes [5]; 10 mM, 48 hours (FIG. 1C)",stimulated it
Oc1ccc(C=Cc2cc(O)cc(O)c2)cc1 [resveratrol],myocyte cell death in vitro,myocytes,prevents myocyte cell death
CC(NC(=O)c1ccccc1/N=C/c1c(O)ccc2ccccc12)c1ccccc1 (stereo not drawn) [sirtinol],mono- and oligo-nucleosomes in the cytoplasm (nuclear fragmentation),cardiac myocytes [5],significantly increased
same,cleavage of caspase-3,caspase-3,induced cleavage of caspase-3
DEVD-CHO,TUNEL positive myocytes caused by NAM,cardiac myocytes [2]; effect of caspase-3 inhibitor on NAM-induced death,prevented increases in TUNEL positive myocytes
same,TUNEL-positive myocytes due to TSA,cardiac myocytes [2]; effect of caspase-3 inhibitor on TSA-induced death,did not affect

# — patent US20100021924A1, “Transgenic animal and methods for decreasing cardiac cell death via cardiac-specific sir2alpha overexpression” (priority 2005, published 2010)
